From patent US7211572B2 (Japan Tobacco Inc., priority 2003, dated 2007)

Target: T1, HIV integrase (Human immunodeficiency virus type 1 group M subtype B, UniProt P12497, F1332H)
T1 construct: HIV integrase full length gene; made in house; host or cells: Escherichia coli BL21(DE3), plasmid pET21a-INH
Test: Determination of enzyme (HIV integrase) inhibitory activity
Type: biochemical
Conditions: recombinant HIV integrase (F185H), strand transfer ELISA, absorbance at 450 nm
From the text: The following explains evaluation methods of the HIV integrase inhibitory activity of the compound of the present invention.
(i) Construction of Recombinant Integrase Gene Expression System
The 185th phenylalanine of HIV integrase full length gene (J. Virol., 67, 425–437 (1993)) was substituted by histidine and inserted into the restriction enzyme NdeI and XhoI sites of plasmid pET21a(+) (Novagen), whereby an integrase expression vector pET21a-INH was constructed.
(ii) Production and Purification of Integrase Protein
Escherichia coli recombinant BL21(DE3) transformed with plasmid pET21a-INH obtained in (i) was shake cultured at 37° C. in a liquid medium containing ampicillin. When the culture reached the logarithmic growth phase, isopropyl-β-D-thiogalactopyranoside was added to promote expression of integrase gene. The culture was continued for 3 hr to promote accumulation of the integrase protein. The recombinant E. coli was collected in pellets by centrifugal separation and preserved at −80° C.
The E. coli was suspended in Lysis buffer (20 mM HEPES (pH 7.5), 5 mM DTT, 10 mM CHAPS, 10% glycerol) containing 1M sodium chloride and subjected to repeat pressurization and depressurization for rupture, and centrifugal separation at 4° C., 40,000×g, 60 min to recover a water-soluble fraction (supernatant). This was diluted 10-fold with Lysis buffer free of sodium chloride, mixed with SP-Sepharose (Pharmacia Corporation) and stirred at 4° C. for 30 min to allow adsorption of integrase protein to the resin. The resin was washed with Lysis buffer containing 100 mM sodium chloride and the integrase protein was eluted with Lysis buffer containing 1M sodium chloride.
The eluted integrase protein solution was applied to a Superdex 75 (Pharmacia Corporation) column for gel filtration. The protein was eluted with Lysis buffer containing 1M sodium chloride.
The obtained fractions of the integrase protein were collected and preserved at −80° C.
(iii) Preparation of DNA Solution
The following DNA synthesized by Greiner was dissolved in TE buffer (10 mM Tris-hydrochloric acid (pH 8.0), 1 mM EDTA) and mixed with donor DNA, target DNA, and each complementary strand (+ and − strands) to 1 μM. The mixture was heated at 95° C. for 5 min, 80° C. for 10 min, 70° C. for 10 min, 60° C. for 10 min, 50° C. for 10 min and 40° C. for 10 min and preserved at 25° C. to give a double stranded DNA, which was used for the test.
Donor DNA (− strand having biotin attached to the 5′ terminal)
(iv) Determination of Enzyme (HIV Integrase) Inhibitory Activity
The donor DNA was diluted with TE buffer to 10 nM, of which 50 μl was added to each well of streptavidin-coated microtiter plate (Roche) and allowed to adsorb at 37° C. for 60 min. The DNA was washed with phosphate buffer (Dulbecco PBS, Sanko Junyaku Co., Ltd.) containing 0.1% Tween 20 and phosphate buffer. Then, a reaction mixture (70 μl) having the following composition, a test substance (10 μl) diluted with the reaction mixture and 100 μg/ml integrase protein (10 μl) were added to each well and reacted at 37° C. for 60 min.
Composition of the reaction mixture: 30 mM MOPS (3-morpholinopropanesulfonic acid), 5 mM magnesium chloride, 3 mM DTT (dithiothreitol), 0.1 mg/ml BSA (bovine serum albumin), 5% glycerol, 10% DMSO (dimethyl sulfoxide), 0.01% Tween 20.
Then, 50 nM target DNA (10 μl) was added, reacted at 37° C. for 10 min and washed with phosphate buffer containing 0.1% Tween 20 to stop the reaction.
Then, 100 mU/ml peroxidase labeled anti-digoxigenin antibody solution (Roche, 100 μl) was added, and the mixture was reacted at 30° C. for 60 min, followed by washing with phosphate buffer containing 0.1% Tween 20.
A peroxidase color solution (Bio Rad, 100 μl) was added and allowed to react at room temperature for 4 min. The color reaction was stopped by adding 1N sulfuric acid (100 μl). The absorbance at 450 nm was measured. […]

Row | Structure (SMILES) | IC50
1 | CC1(C)Cn2ccc(=O)c(O)c2C(=O)N1Cc1ccc(Cl)c(Cl)c1 [Example 18, 2-(3,4-dichlorobenzyl)-9-hydroxy-3,3-dimethyl-3,4-dihydro-2H-pyrido[1,2-a]pyrazine-1,8-dione] | 10 to 100 nM
2 | O=C1c2c(O)c(=O)ccn2C2(CCCC2)CN1Cc1ccc(Cl)c(Cl)c1 [Example 19, 2-(3,4-dichlorobenzyl)-9-hydroxy-3,4-dihydro-2H-pyrido[1,2-a]pyrazine-4-spiro-1′-cyclopentane-1,8-dione] | 10 to 100 nM
3 | O=C1c2c(O)c(=O)ccn2C2(CCCCC2)CN1Cc1ccc(Cl)c(Cl)c1 [Example 20, 2-(3,4-dichlorobenzyl)-9-hydroxy-3,4-dihydro-2H-pyrido[1,2-a]pyrazine-4-spiro-1′-cyclohexane-1,8-dione] | 10 to 100 nM
4 | COC(=O)C1CN(Cc2ccc(Cl)c(Cl)c2)C(=O)c2c(O)c(=O)ccn21 (stereo not shown) [Example 21, methyl 2-(3,4-dichlorobenzyl)-9-hydroxy-1,8-dioxo-1,3,4,8-tetrahydro-2H-pyrido[1,2-a]pyrazine-4-carboxylate] | 10 to 100 nM
5 | O=C(O)C1CN(Cc2ccc(Cl)c(Cl)c2)C(=O)c2c(O)c(=O)ccn21 (stereo not shown) [Example 22, 2-(3,4-dichlorobenzyl)-9-hydroxy-1,8-dioxo-1,3,4,8-tetrahydro-2H-pyrido[1,2-a]pyrazine-4-carboxylic acid] | 10 to 100 nM
6 | COCc1cc(=O)c(O)c2n1CCN(Cc1ccc(Cl)c(Cl)c1)C2=O [Example 23, 2-(3,4-dichlorobenzyl)-9-hydroxy-6-methoxymethyl-3,4-dihydro-2H-pyrido[1,2-a]pyrazine-1,8-dione] | 10 to 100 nM
7 | CN(C)C(=O)c1cc(=O)c(O)c2n1CCN(Cc1ccc(Cl)c(Cl)c1)C2=O [Example 24, N,N-dimethyl-2-(3,4-dichlorobenzyl)-9-hydroxy-1,8-dioxo-1,3,4,8-tetrahydro-2H-pyrido[1,2-a]pyrazine-6-carboxamide] | 10 to 100 nM
8 | O=C1c2c(O)c(=O)ccn2CC(Cc2ccccc2)N1Cc1ccc(Cl)c(Cl)c1 (stereo not shown) [Example 25, 3-benzyl-2-(3,4-dichlorobenzyl)-9-hydroxy-3,4-dihydro-2H-pyrido[1,2-a]pyrazine-1,8-dione] | 10 to 100 nM
9 | CCCCC1Cn2ccc(=O)c(O)c2C(=O)N1Cc1ccc(Cl)c(Cl)c1 (stereo not shown) [Example 26, 3-butyl-2-(3,4-dichlorobenzyl)-9-hydroxy-3,4-dihydro-2H-pyrido[1,2-a]pyrazine-1,8-dione] | 10 to 100 nM
10 | CN(C)C(=O)C1CN(Cc2ccc(Cl)c(Cl)c2)C(=O)c2c(O)c(=O)ccn21 (stereo not shown) [Example 27, N,N-dimethyl-2-(3,4-dichlorobenzyl)-9-hydroxy-1,8-dioxo-1,3,4,8-tetrahydro-2H-pyrido[1,2-a]pyrazine-4-carboxamide] | 100 to 1000 nM
11 | O=C1c2c(O)c(=O)ccn2C(CO)CN1Cc1ccc(Cl)c(Cl)c1 (stereo not shown) [Example 28, 2-(3,4-dichlorobenzyl)-9-hydroxy-4-hydroxymethyl-3,4-dihydro-2H-pyrido[1,2-a]pyrazine-1,8-dione] | 10 to 100 nM
12 | COCC1CN(Cc2ccc(Cl)c(Cl)c2)C(=O)c2c(O)c(=O)ccn21 (stereo not shown) [Example 29, 2-(3,4-dichlorobenzyl)-9-hydroxy-4-methoxymethyl-3,4-dihydro-2H-pyrido[1,2-a]pyrazine-1,8-dione] | 10 to 100 nM
13 | CSCc1cc(=O)c(O)c2n1CCN(Cc1ccc(Cl)c(Cl)c1)C2=O [Example 30, 2-(3,4-dichlorobenzyl)-9-hydroxy-6-methylsulfanylmethyl-3,4-dihydro-2H-pyrido[1,2-a]pyrazine-1,8-dione] | 10 to 100 nM
14 | CS(=O)(=O)Cc1cc(=O)c(O)c2n1CCN(Cc1ccc(Cl)c(Cl)c1)C2=O [Example 31, 2-(3,4-dichlorobenzyl)-9-hydroxy-6-methanesulfonylmethyl-3,4-dihydro-2H-pyrido[1,2-a]pyrazine-1,8-dione] | 10 to 100 nM
15 | CS(=O)(=O)CCC1CN(Cc2ccc(Cl)c(Cl)c2)C(=O)c2c(O)c(=O)ccn21 (stereo not shown) [Example 32, 2-(3,4-dichlorobenzyl)-9-hydroxy-4-(2-methanesulfonylethyl)-3,4-dihydro-2H-pyrido[1,2-a]pyrazine-1,8-dione] | 10 to 100 nM
16 | CSCCC1CN(Cc2ccc(Cl)c(Cl)c2)C(=O)c2c(O)c(=O)ccn21 (stereo not shown) [Example 33, 2-(3,4-dichlorobenzyl)-9-hydroxy-4-(2-methylsulfanylethyl)-3,4-dihydro-2H-pyrido[1,2-a]pyrazine-1,8-dione] | 10 to 100 nM
17 | COC(=O)c1cc(=O)c(O)c2n1CCN(Cc1ccc(Cl)c(Cl)c1)C2=O [Example 34, methyl 2-(3,4-dichlorobenzyl)-9-hydroxy-1,8-dioxo-1,3,4,8-tetrahydro-2H-pyrido[1,2-a]pyrazine-6-carboxylate] | 10 to 100 nM
18 | CC(=O)c1cc(=O)c(O)c2n1CCN(Cc1ccc(Cl)c(Cl)c1)C2=O [Example 35, 6-acetyl-2-(3,4-dichlorobenzyl)-9-hydroxy-3,4-dihydro-2H-pyrido[1,2-a]pyrazine-1,8-dione] | 10 to 100 nM
19 | CC(C)SCc1cc(=O)c(O)c2n1CCN(Cc1ccc(Cl)c(Cl)c1)C2=O [Example 36, 2-(3,4-dichlorobenzyl)-9-hydroxy-6-isopropylsulfanylmethyl-3,4-dihydro-2H-pyrido[1,2-a]pyrazine-1,8-dione] | 10 to 100 nM
20 | CC(C)S(=O)(=O)Cc1cc(=O)c(O)c2n1CCN(Cc1ccc(Cl)c(Cl)c1)C2=O [Example 37, 2-(3,4-dichlorobenzyl)-9-hydroxy-6-isopropylsulfonylmethyl-3,4-dihydro-2H-pyrido[1,2-a]pyrazine-1,8-dione] | 10 to 100 nM
21 | CC(C)OCc1cc(=O)c(O)c2n1CCN(Cc1ccc(Cl)c(Cl)c1)C2=O [Example 38, 2-(3,4-dichlorobenzyl)-9-hydroxy-6-isopropoxymethyl-3,4-dihydro-2H-pyrido[1,2-a]pyrazine-1,8-dione] | 10 to 100 nM
22 | CC(C)COCc1cc(=O)c(O)c2n1CCN(Cc1ccc(Cl)c(Cl)c1)C2=O [Example 39, 2-(3,4-dichlorobenzyl)-9-hydroxy-6-isobutoxymethyl-3,4-dihydro-2H-pyrido[1,2-a]pyrazine-1,8-dione] | 10 to 100 nM
23 | CC(O)c1cc(=O)c(O)c2n1CCN(Cc1ccc(Cl)c(Cl)c1)C2=O (stereo not shown) [Example 40, 2-(3,4-dichlorobenzyl)-9-hydroxy-6-(1-hydroxyethyl)-3,4-dihydro-2H-pyrido[1,2-a]pyrazine-1,8-dione] | 10 to 100 nM
24 | O=C1c2c(O)c(=O)cc(COc3ccccc3)n2CCN1Cc1ccc(Cl)c(Cl)c1 [Example 41, 2-(3,4-dichlorobenzyl)-9-hydroxy-6-phenoxymethyl-3,4-dihydro-2H-pyrido[1,2-a]pyrazine-1,8-dione] | 10 to 100 nM
25 | O=C1c2c(O)c(=O)ccn2CCN1Cc1ccc(F)cc1 [Example 42, 2-(4-fluorobenzyl)-9-hydroxy-3,4-dihydro-2H-pyrido[1,2-a]pyrazine-1,8-dione] | 10 to 100 nM
26 | O=C1c2c(O)c(=O)ccn2CCN1Cc1cccc(Cl)c1 [Example 43, 2-(3-chlorobenzyl)-9-hydroxy-3,4-dihydro-2H-pyrido[1,2-a]pyrazine-1,8-dione] | 10 to 100 nM
27 | O=C1c2c(O)c(=O)ccn2CCN1Cc1ccccc1 [Example 44, 2-benzyl-9-hydroxy-3,4-dihydro-2H-pyrido[1,2-a]pyrazine-1,8-dione] | 100 to 1000 nM
28 | O=C1c2c(O)c(=O)ccn2CCN1Cc1ccc(Cl)cc1 [Example 45, 2-(4-chlorobenzyl)-9-hydroxy-3,4-dihydro-2H-pyrido[1,2-a]pyrazine-1,8-dione] | 10 to 100 nM
